The record followed here is patent publication EP0637448A1, “Combinations of glycinamide or N-acetylglycinamide with analgesic compounds” (ISCOFAR SAS DI PAOLO E. GHIRARDI, priority 1993, dated 1995).

Like-named read-outs stand apart in the source and are kept apart here. Bounds are passed on as bounds.

Data set [1] relates to EDEMA FROM CARRAGEENIN
The data set can be described thus: carrageenin edema test. It is filed as in vivo, mouse. Particulars: for ED50: NSAID alone, per os 60 minutes before carrageenin, edema volume after 3 hours, read-out: ED₅₀ ± S.D. (dose reducing edema by 50%).

Data set [2] relates to phenylquinone induced writhing. The data set can be described thus: writhing test (phenylquinone-induced abdominal contractions). Type of data set: in vivo, mouse. To be noted: for time of maximum effect after administration: ED50 dose given orally, effect as a function of time; for ED50: Mus musculus, read-out: ED₅₀ ± D.5 (anti-writhing action). As to the method: In order to experimentally test the above analgesic effect, which involves the µ and K type opiate receptors, the writhing test (literally: "induced abdominal contracture test") with […] of phenylquinone or paraphenylbenzoquinone (0.02% in 5% ethanol), has been choosed. Since phenylquinone is a photosensitive, said solution was kept dark bottle at 37 °C with continuous stirring. Groups of animals were treated orally with different doses of glycinamide at various time intervals before phenylquinone being administered by intraperitoneal way. For each experimental point 3 groups of 10 animals each were tested. After the phenylquinone administration, the animals were placed in glass cylinders and the abdominal contractions were recorded for 20 minutes starting form the fifth minute following the intraperitoneal administration of phenylquinone. As an average, about 50±15 abdominal contractions were recorded during the surveying time. The choice of phenylquinone as the writhing inductor is justified by the greater qualitative constance and higher number of contractions obtainable when compared with other inductors such as acetylcholine, acetic acid, ethacrynic acid, air, etc. [table]

A short description of data set [3]: acute oral toxicity (LD50). It is filed as in vivo. To be noted: in vivo, po; mouse, orally; read-out: LD₅₀.
In data set [4] the test system is mouse. The data set can be described thus: acute oral toxicity (LD50). It is filed as in vivo. Particulars: orally.
[5] abbreviates: substance alone, orally, mouse, phenylquinone 2 mg/kg i.p.

Consider `CC(=O)Oc1ccccc1C(=O)O` [Acetylsalicylic acid], for which the ED50 in data set [1] (mouse) came to 5.1 ± 0.8 mg/kg.

As for `NCC(=O)O` [glycine], the “enhancement of the action of peripheral analgesic drugs” value in data set [2] (test not given) is “does not produce”.

`CC(C)Cc1ccc(C(C)C(=O)O)cc1` (stereo not drawn) [Ibuprofen]: in data set [1] (mouse), the ED50 came to 20 ± 2.4 mg/kg.

For the compound `O=C(O)Cc1ccccc1Nc1c(Cl)cccc1Cl` [Sodium diclofenac], the ED50 in data set [1] (mouse) was found to be 10 ± 3.6 mg/kg; in data set [2] (+ Glycinamide HCl 15 mg/kg orally 13 minutes before testing, mouse), 1.86 ± 1.15 mg/kg; in data set [2] (+ Glycinamide HCl 25 mg/kg orally 13 minutes before testing, mouse) it was 1.12 ± 1.2 mg/kg; in data set [2] (+ Glycinamide HCl 50 mg/kg orally 13 minutes before testing, mouse), 1.05 ± 1.31 mg/kg; in data set [2] (+ Glycinamide HCl 75 mg/kg orally 13 minutes before testing, mouse), 1.02 ± 1.26 mg/kg; in data set [2] (+ Glycinamide HCl 100 mg/kg orally 13 minutes before testing, mouse) it was 1.28 ± 1.16 mg/kg. Moreover, the ED50 in data set [2] (setting [5]) worked out at 2.93 ± 1.43 mg/kg. In addition, the “time of maximum effect after administration” value in data set [2] (mouse) worked out at 45 min.

Turning to `CC(=O)NCC(N)=O` [N-acetylglycinamide], the “peripheral analgesic activity compared with glycinamide” value in data set [2] (mouse, in vivo) was “shared both qualitatively and quantitatively”. Besides, the LD50 in data set [3] is > 2000 mg/kg.

For the compound `COc1ccc2c(c1)c(CC(=O)O)c(C)n2C(=O)c1ccc(Cl)cc1` [Indomethacin], in data set [1] (mouse), the ED50 stood at 84 ± 12 mg/kg.

Regarding `NCC(N)=O` [Glycinamide], the “enhancement of the effect of sodium diclofenac” value in data set [1] (50 mg/kg of glycinamide, based on the carrageenin edema test) is listed as “at least 2.8 times”. The anti-edema effect entry in data set [1] (glycinamide alone, 50 mg/kg orally 50 minutes before carrageenin, mouse) is recorded as “does not develop an anti-edema effect”. In data set [2] (25 mg/kg of glycinamide, based on writhing test), the “enhancement of the antiphlogistic and visceral peripheral analgesic effect of sodium diclofenac” value is listed as “at least 2.5 times”. The “time of maximum effect after administration” value in data set [2] (mouse) is listed as “about 13 minutes”. In addition, the ED50 in data set [2] (setting [5]) was ~82.9 mg/kg. For the same compound, in data set [2] (orally administered dose of 200 mg/kg, mouse), the “reduction (anti-writhing action, peak)” value turned out to be 81.3%. Besides, the LD₅₀ entry in data set [4] is listed as “higher than 2 g/Kg”.
